Data reported in US20130058977A1, “COMPOSITIONS AND METHODS RELATED TO INDUCED TOLEROGENIC DENDRITIC CELLS EXTERNALLY LOADED WITH MHC CLASS I-RESTRICTED EPITOPES” (Selecta Biosciences, Inc., priority 2011, published 2013).

Test system: TCR transgenic OTI cells
Assay: External loading of MHC Class I-restricted epitopes onto itDCs, read out as Phospho-Zap-70 in OTI cells
Type: cell-based
Conditions: dendritic cells externally loaded on ice for 30 minutes; mixed with OTI cells for 30 min at 37 C; pZap70 staining
Procedure: Dendritic cells were externally loaded on ice for 30 minutes with MHC Class I-restricted peptides from Ovalbumin recognized by TCR transgenic OTI cells. DC were washed and mixed with OTI cells for 30 min in complete media at 37 C, 5% CO2. Cells were stained with conjugated antibodies specifically recognizing TCR. After fixation and permeabilization with paraformaldehyde and methanol, cells were labelled with monoclonal antibodies specific for the phosphorylated (activated) form of the Zeta-chain-associated protein kinase 70 (Phospho-Zap-70). Expression of pZap70 is directly proportional to the amount of stimulatory signal delivered through the TCR to T cells.

SINFEKL [MHC Class I-restricted peptide from Ovalbumin recognized by TCR transgenic OTI cells]
loading of a MHC Class I-restricted epitope onto itDCs: successful loading
